Measurements published in PubChem BioAssay AID1963974 (Molecular Pharmacology Branch, DTP, NCI, 2024).

System: 648629-189-R-J1-PDC spheroids with HUVEC/MSC, viability
Test: Anticancer human tumor 648629-189-R-J1-PDC patient-derived bladder carcinoma cell line growth inhibition [PI3K]
Conditions: for IC50: curve of first compound; for viability, T/C: stronger effect = lower value
How it was run: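 High-throughput combination screen: PI3K inhibitors crossed with targeted small molecules on complex spheroids of tumor cells, HUVEC and MSCs at 37 degrees C, 5% CO2. Top concentration was at or near clinical Cmax (otherwise 10 microM), with half-log decrements.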

[1] = second compound 0.0316 µM, first compound 0.0316 µM
[2] = second compound 0.0316 µM, first compound 0.1 µM
[3] = second compound 0.0316 µM, first compound 0.316 µM
[4] = second compound 0.0316 µM, first compound 1 µM
[5] = second compound 0.0316 µM, first compound 3.16 µM
[6] = second compound 0.0316 µM, first compound 10 µM
[7] = second compound 0.1 µM, first compound 0.0316 µM
[8] = second compound 0.1 µM, first compound 0.1 µM
[9] = second compound 0.1 µM, first compound 0.316 µM
[10] = second compound 0.1 µM, first compound 1 µM
[11] = second compound 0.1 µM, first compound 3.16 µM
[12] = second compound 0.1 µM, first compound 10 µM
[13] = second compound 0.316 µM, first compound 0.0316 µM
[14] = second compound 0.316 µM, first compound 0.1 µM
[15] = second compound 0.316 µM, first compound 0.316 µM
[16] = second compound 0.316 µM, first compound 1 µM
[17] = second compound 0.316 µM, first compound 3.16 µM
[18] = second compound 0.316 µM, first compound 10 µM
[19] = second compound 1 µM, first compound 0.0316 µM
[20] = second compound 1 µM, first compound 0.1 µM
[21] = second compound 1 µM, first compound 0.316 µM
[22] = second compound 1 µM, first compound 1 µM
[23] = second compound 1 µM, first compound 3.16 µM
[24] = second compound 1 µM, first compound 10 µM
[25] = second compound 3.16 µM, first compound 0.0316 µM
[26] = second compound 3.16 µM, first compound 0.1 µM
[27] = second compound 3.16 µM, first compound 0.316 µM
[28] = second compound 3.16 µM, first compound 1 µM
[29] = second compound 3.16 µM, first compound 3.16 µM
[30] = second compound 3.16 µM, first compound 10 µM
[31] = second compound 10 µM, first compound 0.0316 µM
[32] = second compound 10 µM, first compound 0.1 µM
[33] = second compound 10 µM, first compound 0.316 µM
[34] = second compound 10 µM, first compound 1 µM
[35] = second compound 10 µM, first compound 3.16 µM
[36] = second compound 10 µM, first compound 10 µM
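Note: spheroids exposed to agents for seven days before reading.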
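Throughout, for viability, T/C: percent of vehicle control luminescence where 100% = DMSO treated spheroids.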

Cn1ncc(Cl)c1-c1cc(C(=O)NC(CN)Cc2cccc(F)c2)sc1Cl (stereo unspecified) + CC(Nc1ncnc2nc[nH]c12)c1cc2cccc(Cl)c2c(=O)n1-c1ccccc1
IC50 (second compound 0.0316 µM): 991 nM
IC50 (second compound 0.1 µM): 769 nM
IC50 (second compound 0.316 µM): 708 nM
IC50 (second compound 1 µM): 709 nM
IC50 (second compound 3.16 µM): 646 nM
IC50 (second compound 10 µM): 479 nM
viability, T/C [1]: 129%
viability, T/C [2]: 90.4%
viability, T/C [3]: 68.3%
viability, T/C [4]: 45.8%
viability, T/C [5]: 26.5%
viability, T/C [6]: 10.4%
viability, T/C [7]: 97.8%
viability, T/C [8]: 87.2%
viability, T/C [9]: 71.8%
viability, T/C [10]: 39.9%
viability, T/C [11]: 27.5%
viability, T/C [12]: 9.37%
viability, T/C [13]: 93.9%
viability, T/C [14]: 103%
viability, T/C [15]: 62.8%
viability, T/C [16]: 42.6%
viability, T/C [17]: 23.8%
viability, T/C [18]: 7.95%
viability, T/C [19]: 108%
viability, T/C [20]: 92.2%
viability, T/C [21]: 62.2%
viability, T/C [22]: 42.9%
viability, T/C [23]: 27.2%
viability, T/C [24]: 8.92%
viability, T/C [25]: 97.7%
viability, T/C [26]: 93.8%
viability, T/C [27]: 64.8%
viability, T/C [28]: 36.7%
viability, T/C [29]: 26.5%
viability, T/C [30]: 7.12%
viability, T/C [31]: 99.7%
viability, T/C [32]: 78.2%
viability, T/C [33]: 56.9%
viability, T/C [34]: 37.2%
viability, T/C [35]: 21.3%
viability, T/C [36]: 6.29%

Cn1nccc1Nc1nccc(-c2ccn(C(CO)c3ccc(Cl)c(F)c3)c(=O)c2)n1 (stereo unspecified) + CC(Nc1ncnc2nc[nH]c12)c1cc2cccc(Cl)c2c(=O)n1-c1ccccc1
IC50 (second compound 0.0316 µM): > 10000 nM
IC50 (second compound 0.1 µM): > 10000 nM
IC50 (second compound 0.316 µM): > 10000 nM
IC50 (second compound 1 µM): > 10000 nM
IC50 (second compound 3.16 µM): > 10000 nM
IC50 (second compound 10 µM): > 10000 nM
viability, T/C [1]: 104%
viability, T/C [2]: 95.8%
viability, T/C [3]: 101%
viability, T/C [4]: 110%
viability, T/C [5]: 94%
viability, T/C [6]: 86.5%
viability, T/C [7]: 101%
viability, T/C [8]: 88.9%
viability, T/C [9]: 102%
viability, T/C [10]: 105%
viability, T/C [11]: 100%
viability, T/C [12]: 88.4%
viability, T/C [13]: 116%
viability, T/C [14]: 96.2%
viability, T/C [15]: 96.8%
viability, T/C [16]: 88.7%
viability, T/C [17]: 101%
viability, T/C [18]: 80.4%
viability, T/C [19]: 104%
viability, T/C [20]: 93.9%
viability, T/C [21]: 101%
viability, T/C [22]: 105%
viability, T/C [23]: 102%
viability, T/C [24]: 79.3%
viability, T/C [25]: 88.5%
viability, T/C [26]: 103%
viability, T/C [27]: 100%
viability, T/C [28]: 100%
viability, T/C [29]: 93%
viability, T/C [30]: 73.6%
viability, T/C [31]: 86.5%
viability, T/C [32]: 80.6%
viability, T/C [33]: 79.9%
viability, T/C [34]: 90.8%
viability, T/C [35]: 97.7%
viability, T/C [36]: 78.5%

Cn1ncnc1[C@H]1c2n[nH]c(=O)c3cc(F)cc(c23)N[C@@H]1c1ccc(F)cc1 + CC(Nc1ncnc2nc[nH]c12)c1cc2cccc(Cl)c2c(=O)n1-c1ccccc1
IC50 (second compound 0.0316 µM): > 100 nM
IC50 (second compound 0.1 µM): > 100 nM
IC50 (second compound 0.316 µM): > 100 nM
IC50 (second compound 1 µM): > 100 nM
IC50 (second compound 3.16 µM): > 100 nM
IC50 (second compound 10 µM): > 100 nM
viability, T/C (second compound 0.0316 µM, first compound 0.000316 µM): 99.8%
viability, T/C (second compound 0.0316 µM, first compound 0.001 µM): 100%
viability, T/C (second compound 0.0316 µM, first compound 0.00316 µM): 99.8%
viability, T/C (second compound 0.0316 µM, first compound 0.01 µM): 88.1%
viability, T/C [1]: 67.2%
viability, T/C [2]: 71%
viability, T/C (second compound 0.1 µM, first compound 0.000316 µM): 97.8%
viability, T/C (second compound 0.1 µM, first compound 0.001 µM): 101%
viability, T/C (second compound 0.1 µM, first compound 0.00316 µM): 98.2%
viability, T/C (second compound 0.1 µM, first compound 0.01 µM): 81.2%
viability, T/C [7]: 93.2%
viability, T/C [8]: 66.7%
viability, T/C (second compound 0.316 µM, first compound 0.000316 µM): 94.2%
viability, T/C (second compound 0.316 µM, first compound 0.001 µM): 98.2%
viability, T/C (second compound 0.316 µM, first compound 0.00316 µM): 91.9%
viability, T/C (second compound 0.316 µM, first compound 0.01 µM): 92%
viability, T/C [13]: 85.4%
viability, T/C [14]: 59.1%
viability, T/C (second compound 1 µM, first compound 0.000316 µM): 111%
viability, T/C (second compound 1 µM, first compound 0.001 µM): 100%
viability, T/C (second compound 1 µM, first compound 0.00316 µM): 97.8%
viability, T/C (second compound 1 µM, first compound 0.01 µM): 82.3%
viability, T/C [19]: 74.4%
viability, T/C [20]: 65.1%
viability, T/C (second compound 3.16 µM, first compound 0.000316 µM): 96.4%
viability, T/C (second compound 3.16 µM, first compound 0.001 µM): 89.6%
viability, T/C (second compound 3.16 µM, first compound 0.00316 µM): 88.7%
viability, T/C (second compound 3.16 µM, first compound 0.01 µM): 86.5%
viability, T/C [25]: 81.6%
viability, T/C [26]: 58.9%
viability, T/C (second compound 10 µM, first compound 0.000316 µM): 90.4%
viability, T/C (second compound 10 µM, first compound 0.001 µM): 86.7%
viability, T/C (second compound 10 µM, first compound 0.00316 µM): 80.7%
viability, T/C (second compound 10 µM, first compound 0.01 µM): 80.7%
viability, T/C [31]: 71.1%
viability, T/C [32]: 55.9%
